Experimental data: patent publication US20110190365A1, “Insecticidal 4-phenyl-1H-pyrazoles” (Bayer Crop Science AG, priority 2008, published 2011)

Tested on: not listed separately
Experiment: log P by HPLC on a reversed-phase column (C18), EEC Directive 79/831 Annex V.A8
Type: physicochemical
Settings: HCOOH
Method: The stated log P values were determined in accordance with EEC Directive 79/831 Annex V.A8 by HPLC (High Performance Liquid Chromatography) using a reversed-phase column (C18).

SMILES	log P (HCOOH)
CCOC(=O)c1ccc(-n2nc(C(F)(F)F)c(Br)c2N)cc1 [XI-A-018]	XI-A-018: log P (HCOOH): 3.60
Nc1c(Br)c(C(F)(F)F)nn1-c1ccc(C(=O)O)cc1 [XI-A-038]	XI-A-038: log P (HCOOH): 2.38
CCOC(=O)c1ccc(-n2nc(C(F)(F)F)c(Cl)c2N)cc1 [XI-A-042]	XI-A-042: log P (HCOOH): 3.52
Nc1c(Cl)c(C(F)(F)F)nn1-c1ccc(C(=O)O)cc1 [XI-A-043]	XI-A-043: log P (HCOOH): 2.34
CCOC(=O)c1ccc(-n2nc(C(F)(F)F)c(I)c2N)cc1 [XI-A-044]	XI-A-044: log P (HCOOH): 3.66
Nc1c(I)c(C(F)(F)F)nn1-c1ccc(C(=O)O)cc1 [XI-A-045]	XI-A-045: log P (HCOOH): 2.47
N#Cc1cc(-n2nc(C(F)(F)F)cc2N)ccc1-n1cncn1 [XI-A-079]	XI-A-079: log P (HCOOH): 2.80
COC(=O)c1ccc(-n2nc(C(F)(F)F)cc2N)cc1C [XI-A-080]	XI-A-080: log P (HCOOH): 1.97
COC(=O)c1ccc(-n2nc(C(F)(F)F)c(Cl)c2N)cc1C [XI-A-081]	XI-A-081: log P (HCOOH): 2.76
COC(=O)c1ccc(-n2nc(C(F)(F)F)c(Br)c2N)cc1C [XI-A-082]	XI-A-082: log P (HCOOH): 3.52
COC(=O)c1ccc(-n2nc(C(F)(F)F)c(I)c2N)cc1C [XI-A-083]	XI-A-083: log P (HCOOH): 3.48
Cc1cc(-n2nc(C(F)(F)F)cc2N)ccc1C(=O)O [XI-A-084]	XI-A-084: log P (HCOOH): 3.53
Cc1cc(-n2nc(C(F)(F)F)c(Cl)c2N)ccc1C(=O)O [XI-A-085]	XI-A-085: log P (HCOOH): 1.95
Cc1cc(-n2nc(C(F)(F)F)c(Br)c2N)ccc1C(=O)O [XI-A-086]	XI-A-086: log P (HCOOH): 2.54
Cc1cc(-n2nc(C(F)(F)F)c(I)c2N)ccc1C(=O)O [XI-A-087]	XI-A-087: log P (HCOOH): 2.58
Cc1cc(-n2nc(C(F)(F)F)cc2N)ccc1C(=O)NCC(F)(F)C(F)F [XI-A-088]	XI-A-088: log P (HCOOH): 2.63
Cc1cc(-n2nc(C(F)(F)F)cc2N)ccc1C(=O)NCc1ccccn1 [XI-A-089]	XI-A-089: log P (HCOOH): 2.45
Cc1cc(-n2nc(C(F)(F)F)c(Cl)c2N)ccc1C(=O)NCc1ccccn1 [XI-A-091]	XI-A-091: log P (HCOOH): 1.94
Cc1cc(-n2nc(C(F)(F)F)c(Br)c2N)ccc1C(=O)NCC(F)(F)C(F)F [XI-A-092]	XI-A-092: log P (HCOOH): 3.03
Cc1cc(-n2nc(C(F)(F)F)c(Br)c2N)ccc1C(=O)NCc1ccccn1 [XI-A-093]	XI-A-093: log P (HCOOH): 1.98
Cc1cc(-n2nc(C(F)(F)F)c(I)c2N)ccc1C(=O)NCC(F)(F)C(F)F [XI-A-094]	XI-A-094: log P (HCOOH): 3.08
Cc1cc(-n2nc(C(F)(F)F)c(I)c2N)ccc1C(=O)NCc1ccccn1 [XI-A-095]	XI-A-095: log P (HCOOH): 2.03

Same assay, conditions: HCOOH; Table 4, compounds of formula I-A-Q4

SMILES	log P (HCOOH)
Nc1c(-c2cc(Cl)cc(Cl)c2)c(C(F)(F)F)nn1-c1ccc(S(=O)(=O)NC2CC2)c(Cl)c1 [I-A-Q4-110]	I-A-Q4-110: log P (HCOOH): 4.49
Nc1c(-c2cc(Cl)cc(Cl)c2)c(C(F)(F)F)nn1-c1ccc(S(=O)(=O)NC2CC2)c(Br)c1 [I-A-Q4-111]	I-A-Q4-111: log P (HCOOH): 4.77
COC(=O)c1ccc(-n2nc(C(F)(F)F)c(-c3cc(Cl)cc(Cl)c3)c2N)cc1C(F)(F)F [I-A-Q4-112]	I-A-Q4-112: log P (HCOOH): 5.21
Nc1c(-c2cc(Cl)cc(Cl)c2)c(C(F)(F)F)nn1-c1ccc(C(=O)O)c(C(F)(F)F)c1 [I-A-Q4-115]	I-A-Q4-115: log P (HCOOH): 4.22
COC(=O)c1ccc(-n2nc(C(F)(F)F)c(-c3cc(Cl)cc(Cl)c3)c2N)cc1SC [I-A-Q4-118]	I-A-Q4-118: log P (HCOOH): 4.93
COC(=O)c1ccc(-n2nc(C(F)(F)F)c(-c3cc(Cl)cc(Cl)c3)c2N)cc1N(C)C [I-A-Q4-119]	I-A-Q4-119: log P (HCOOH): 4.71
CNc1cc(-n2nc(C(F)(F)F)c(-c3cc(Cl)cc(Cl)c3)c2N)ccc1C(=O)O [I-A-Q4-120]	I-A-Q4-120: log P (HCOOH): 4.11
CN(C)c1cc(-n2nc(C(F)(F)F)c(-c3cc(Cl)cc(Cl)c3)c2N)ccc1C(=O)O [I-A-Q4-121]	I-A-Q4-121: log P (HCOOH): 3.07
N#Cc1cc(-n2nc(C(F)(F)F)c(-c3cc(Cl)cc(Cl)c3)c2N)ccc1S(=O)(=O)NC1CCC1 [I-A-Q4-122]	I-A-Q4-122: log P (HCOOH): 4.69
N#Cc1cc(-n2nc(C(F)(F)F)c(-c3cc(Cl)cc(Cl)c3)c2N)ccc1S(=O)(=O)NCC(F)(F)F [I-A-Q4-123]	I-A-Q4-123: log P (HCOOH): 4.41

Same assay, conditions: HCOOH; Table 6, compounds of formula I-B-Q2

SMILES	log P (HCOOH)
CC(NC(=O)c1ccc(-n2cc(-c3cc(Cl)cc(Cl)c3)c(C(F)(F)F)n2)c2ccccc12)C(F)(F)F (stereo not drawn) [I-B-Q2-001]	I-B-Q2-001: log P (HCOOH): 4.74
O=C(NCC(F)(F)C(F)F)c1ccc(-n2cc(-c3cc(Cl)cc(Cl)c3)c(C(F)(F)F)n2)c2ccccc12 [I-B-Q2-021]	I-B-Q2-021: log P (HCOOH): 4.58

Same assay, conditions: HCOOH; compounds of the formula (IX), Table 11

SMILES	log P (HCOOH)
Nc1[nH]nc(C(F)(F)F)c1-c1cc(Cl)cc(Cl)c1 [IX-021]	IX-021: log P (HCOOH): 2.91
Nc1[nH]nc(C(F)(F)F)c1-c1ccc(Cl)c(Cl)c1 [IX-38]	IX-38: log P (HCOOH): 2.80
Nc1[nH]nc(C(F)(F)F)c1-c1ccc(F)c(F)c1 [IX-201]	IX-201: log P (HCOOH): 2.33
Nc1[nH]nc(C(F)(F)F)c1-c1ccc(F)cc1 [IX-202]	IX-202: log P (HCOOH): 2.16
CC(=O)Nc1[nH]nc(C(F)(F)F)c1-c1cc(Cl)cc(Cl)c1 [IX-203]	IX-203: log P (HCOOH): 2.98
CC(=O)Nc1[nH]nc(C(F)(F)F)c1-c1ccc(Cl)cc1Cl [IX-204]	IX-204: log P (HCOOH): 2.79

Same assay, conditions: HPLC, reversed-phase C18, mobile phase with formic acid

SMILES	log P (HCOOH)
CCS(=O)(=O)c1ncn(-c2ccc(-n3nc(C(F)(F)F)c(-c4cc(Cl)cc(Cl)c4)c3N)cc2C#N)n1 [I-A-Q1-087]	I-A-Q1-087: log P (HCOOH): 3.78
CC[S+]([O-])c1ccn(-c2ccc(-n3nc(C(F)(F)F)c(-c4cc(Cl)cc(Cl)c4)c3N)cc2C#N)n1 (stereo not drawn) [I-A-Q1-090]	I-A-Q1-090: log P (HCOOH): 3.47

Same assay, conditions: HPLC, reversed-phase C18, mobile phase with formic acid; read-out: log P (HCOOH)

SMILES	chromatographic logP
N#Cc1cc(-n2nc(C(F)(F)F)c(-c3cc(Cl)cc(C(F)(F)F)c3)c2N)ccc1-n1cncn1 [I-A-Q1-001, 5-[5-Amino-4-(3-chloro-5-trifluoromethylphenyl)-3-trifluoromethylpyrazol-1-yl]-2-[1,2,4]triazol-1-ylbenzonitrile]	3.92
N#Cc1cc(-n2nc(C(F)(F)F)c(-c3cc(Cl)cc(C(F)(F)F)c3)c2N)ccc1-n1nc[nH]c1=O [I-A-Q1-002, 5-[5-Amino-4-(3-chloro-5-trifluoromethylphenyl)-3-trifluoromethylpyrazol-1-yl]-2-(5-oxo-4,5-dihydro[1,2,4]triazol-1-yl)benzonitrile]	3.45
Cc1cc(-n2nc(C(F)(F)F)c(-c3cc(Cl)cc(Cl)c3)c2N)ccc1C(=O)NCc1ccccn1 [I-A-Q2-012, 4-[5-Amino-4-(3,5-dichlorophenyl)-3-trifluoromethylpyrazol-1-yl]-2-methyl-N-pyridin-2-ylmethylbenzamide]	3.35
Nc1c(-c2cc(Cl)cc(Cl)c2)c(C(F)(F)F)nn1-c1ncc(C(=O)NCc2ccccn2)c(C(F)(F)F)n1 [I-A-Q2-020, N-(Pyridin-2-ylmethyl)-2-[5-amino-4-(3,5-dichlorophenyl)-3-trifluoromethylpyrazol-1-yl]-4-trifluoromethylpyrimidine-5-carboxamide]	3.54
Cc1cc(-n2nc(C(F)(F)F)c(-c3cc(Cl)cc(Cl)c3)c2Cl)ccc1C(=O)NC(C)C(F)(F)F (stereo not drawn) [I-A-Q2-022, 4-[5-Chloro-4-(3,5-dichlorophenyl)-3-trifluoromethylpyrazol-1-yl]-2-methyl-N-(2,2,2-trifluoro-1-methylethyl)benzamide]	5.59
Cc1cc(-n2nc(C(F)(F)F)c(-c3cc(Cl)cc(Cl)c3)c2Br)ccc1C(=O)NC(C)C(F)(F)F (stereo not drawn) [I-A-Q2-024, 4-[5-Bromo-4-(3,5-dichlorophenyl)-3-trifluoromethylpyrazol-1-yl]-2-methyl-N-(2,2,2-trifluoro-1-mmethylethyl)benzamide]	5.53
COC(=O)c1ccc(NN)cc1C [VII-A-008, Methyl 4-hydrazino-2-methylbenzoate]	0.4

Tested on: larvae of the mustard beetle (Phaedon cochleariae)
Experiment: Phaedon cochleariae test (PHAECO spray treatment)
Type: in vivo
Settings: Phaedon cochleariae, foliar, 168 h; application rate 500 g/ha, Chinese cabbage leaf discs sprayed, after 7 days; read-out: effect in % (beetle larvae killed)
Method: Phaedon cochleariae Test (PHAECO Spray Treatment)
Solvent: 78.0 parts by weight of acetone • • 1.5 parts by weight of dimethylformamide Emulsifier: 0.5 part by weight of alkylaryl polyglycol ether
To produce a suitable preparation of active compound, 1 part by weight of active compound is mixed with the stated amounts of solvent and emulsifier, and the concentrate is diluted with emulsifier-containing water to the desired concentration.
Discs of Chinese cabbage (Brassica pekinensis) are sprayed with an active compound preparation of the desired concentration and, after drying, populated with larvae of the mustard beetle (Phaedon cochleariae).
After 7 days, the effect in % is determined. 100% means that all beetle larvae have been killed; 0% means that none of the beetle larvae have been killed.

SMILES	pest or weed control at 500 g/ha [%]
N#Cc1cc(-n2nc(C(F)(F)F)c(-c3cc(Cl)cc(C(F)(F)F)c3)c2N)ccc1-n1cncn1 [I-A-Q1-001, 5-[5-Amino-4-(3-chloro-5-trifluoromethylphenyl)-3-trifluoromethylpyrazol-1-yl]-2-[1,2,4]triazol-1-ylbenzonitrile]	> 80
N#Cc1cc(-n2nc(C(F)(F)F)c(-c3cc(Cl)cc(C(F)(F)F)c3)c2N)ccc1-n1nc[nH]c1=O [I-A-Q1-002, 5-[5-Amino-4-(3-chloro-5-trifluoromethylphenyl)-3-trifluoromethylpyrazol-1-yl]-2-(5-oxo-4,5-dihydro[1,2,4]triazol-1-yl)benzonitrile]	> 80
Cc1cc(-n2nc(C(F)(F)F)c(-c3cc(Cl)cc(Cl)c3)c2N)ccc1C(=O)NCc1ccccn1 [I-A-Q2-012, 4-[5-Amino-4-(3,5-dichlorophenyl)-3-trifluoromethylpyrazol-1-yl]-2-methyl-N-pyridin-2-ylmethylbenzamide]	> 80
Nc1c(-c2cc(Cl)cc(Cl)c2)c(C(F)(F)F)nn1-c1ncc(C(=O)NCc2ccccn2)c(C(F)(F)F)n1 [I-A-Q2-020, N-(Pyridin-2-ylmethyl)-2-[5-amino-4-(3,5-dichlorophenyl)-3-trifluoromethylpyrazol-1-yl]-4-trifluoromethylpyrimidine-5-carboxamide]	> 80
Cc1cc(-n2nc(C(F)(F)F)c(-c3cc(Cl)cc(Cl)c3)c2Cl)ccc1C(=O)NC(C)C(F)(F)F (stereo not drawn) [I-A-Q2-022, 4-[5-Chloro-4-(3,5-dichlorophenyl)-3-trifluoromethylpyrazol-1-yl]-2-methyl-N-(2,2,2-trifluoro-1-methylethyl)benzamide]	> 80
Cc1cc(-n2nc(C(F)(F)F)c(-c3cc(Cl)cc(Cl)c3)c2Br)ccc1C(=O)NC(C)C(F)(F)F (stereo not drawn) [I-A-Q2-024, 4-[5-Bromo-4-(3,5-dichlorophenyl)-3-trifluoromethylpyrazol-1-yl]-2-methyl-N-(2,2,2-trifluoro-1-mmethylethyl)benzamide]	> 80

Same assay, conditions: application rate 500 g/ha, Chinese cabbage leaf discs sprayed, after 7 days

SMILES	effect in % (beetle larvae killed) [%]
CCS(=O)(=O)c1ncn(-c2ccc(-n3nc(C(F)(F)F)c(-c4cc(Cl)cc(Cl)c4)c3N)cc2C#N)n1 [I-A-Q1-087]	100
CC[S+]([O-])c1ccn(-c2ccc(-n3nc(C(F)(F)F)c(-c4cc(Cl)cc(Cl)c4)c3N)cc2C#N)n1 (stereo not drawn) [I-A-Q1-090]	100
